pIC50: −log10 of the molar value.
Columns and labels:
[1] = tested on: normal human lymphocytes; test: MTT cytotoxicity assay on normal human lymphocytes; type: cell-based; conditions: 24 h incubation, 5 to 600 µM, mean ± SEM of six experiments
Source text: (§1) The cytotoxic effects of dimethyl aminophosphonates 3Aa, 3Ab, 3Ac, 3Ad, 3Ai and dimethyl [hydroxy(pyren-1-yl)methyl]phosphonate (5A) were investigated with two human colorectal carcinoma cell lines: HT29 and HCT116 and also on the normal human lymphocytes. For this a standard MTT (3-(4,5-dimethylthiazol-2-yl)-2,5-diphenyltetrazolium bromide) test was used and results presented as IC50 values (i.e., the concentration of the compound that inhibits 50% growth). The activity of the tested compounds was studied in the concentration range from 5 to 600 µM. […]
(§2) 2.1. Materials and methods
(§3) MTT assay (3-(4,5-dimethylthiazol-2-yl)-2,5-diphenyltetrazolium bromide) facilitates the determination of the level of cell survival after the exposure of cells to potentially toxic substances. The cytotoxicity level of studied compounds was evaluated by determining the dose or concentration that induces a standard biological response. The assessment of the cytotoxic activity of the tested compounds was carried out based on IC50 values – the concentration of the compound which causes inhibition of cell proliferation by 50% as compared to the negative control. To determine the above concentration, was created graphs of cell viability expressed in percentages, depending on the concentrations of studied […]
(§4) MTT (3(4,5-dimethylthiazol-2-yl)-2,5-diphenyltetrazolium bromide), lauryl sulfate (SLS), N,N-dimethylformamide (DMF), dimethyl sulfoxide (DMSO), penicillin-streptomycin solution stabilized, MEM non-essential amino acids solution, Histopaque 1077, and buffered saline (PBS) were purchased from Sigma Chemical Co. Foetal bovine serum (FBS), phytohemagglutinin (PHA), RPMI 1640 medium and Trypsin-EDTA were supplied by […]
All other chemicals (chemical reagents, substrates, and solvents) were of the highest commercial grade available and were purchased from CytoGen and Sigma–Aldrich.
Lymphocytes were isolated from the peripheral blood of healthy, non-smoking donors of both sexes by centrifugation in a density gradient of Histopaque 1077 (15 min., 300 × g) (blood was obtained from the Blood Donation Center in Lodz, Poland). The cells were suspended in the culture medium containing RPMI 1640, inactivated FBS (15%), penicillin and streptomycin (1%) and PHA (1%). […]
The lymphocytes, HCT116 […]
and HT29 cells were cultured at 37 °C in a humidified atmosphere of 95% air and 5% CO2.
(§5) A MTT assay was used to assess cell survival after treatment with studied compounds. The MTT assay is a quantitative colorimetric method to determine cell proliferation after treatment with the tested compounds. It is widely used to estimate the cytotoxic effect of chemicals on different types of cells. MTT (3(4,5-dimethyl-2-thiazolyl)-2,5-diphenyl-2H-tetrazolium bromide) is a water-soluble tetrazolium salt, which is converted into an insoluble purple formazan by cleavage of the tertazolium ring by succinate dehydrogenase within the mitochondria. The formazan product is impermeable to the cell membranes and therefore it accumulates in living cells. The purple crystals were extracted into a solution for homogeneous staining and the absorbance was read on a spectrophotometer at 595 nm. The percent reduction of MTT was compared to controls (cells not exposed to tested compounds), which represented 100% MTT reduction. The assay was optimized for the cell lines and chemical compounds used in the experiments.
(§6) The cancer cells and human lymphocytes were grown for 24 h on 96-well plates at a density of 6–8 × 10^3 cells/well and 8 × 10^5 cells/well, respectively. Then the cells were treated with the tested compounds for 24 h incubation periods in a volume of 50 μl per well for the lymphocytes and 100 μl per well for the HCT116, HT29 cells. Subsequently, a fresh MTT solution (lymphocytes, HCT116 and HT29: 20 μl, 5 mg/ml in sterile PBS) was added to each well for the next 4 h. Purple crystals forming in the cancer cells after the reduction of MTT were dissolved by DMSO (100 μl/well). In the case of lymphocytes this was achieved by […]

[2] = tested on: HT29 human colorectal adenocarcinoma cell line; test: MTT cytotoxicity assay on HT29 cells; type: cell-based; conditions: 24 h incubation, 5 to 600 µM, mean ± SEM of six experiments
Source text: as §1, §2, §3, §4
(§7) All other chemicals (chemical reagents, substrates, and solvents) were of the highest commercial grade available and were purchased from CytoGen and Sigma–Aldrich. […]
(§8) The human colorectal carcinoma cell line (HCT116) and the human colorectal adenocarcinoma cell line (HT29) were obtained from the American Type Culture Collection (ATCC, Rockville, USA). The HCT116 cells were cultured in RPMI 1640 supplemented with FBS (10%) and antibiotics (1%): penicillin and streptomycin. The HT29 cells were cultured in RPMI 1640 medium supplemented with FBS (10%), antibiotics (1%): penicillin and streptomycin, and MEM non-essential amino acids solution (1%). The lymphocytes, HCT116 and HT29 cells were cultured at 37 °C in a humidified atmosphere of 95% air and 5% CO2.
as §5
as §6, with “each” for “each well for the next 4 h. Purple crystals forming in the cancer cells after the reduction of MTT were dissolved by DMSO (100 μl/well). In the case of lymphocytes this was achieved by”
(§9) well for the next 4 h. […]

[3] = tested on: HCT116 human colorectal carcinoma cell line; test: MTT cytotoxicity assay on HCT116 cells; type: cell-based; conditions: 24 h incubation, 5 to 600 µM, mean ± SEM of six experiments
Source text: as §1, §2, §3, §4, §7, §8, §5
as §6, with “each” for “each well for the next 4 h. Purple crystals forming in the cancer cells after the reduction of MTT were dissolved by DMSO (100 μl/well). In the case of lymphocytes this was achieved by”
as §9

| Compound | melting point [°C] | pIC50 ([1]; Homo sapiens, Lymphocyte, 24 h) | pIC50 ([2]; Homo sapiens, HT-29, 24 h) | pIC50 ([3]; Homo sapiens, HCT-116, 24 h) | pIC50 [1] | pIC50 [2] | pIC50 [3] |
| --- | --- | --- | --- | --- | --- | --- | --- |
| O=P(OCc1ccccc1)(OCc1ccccc1)C(NCc1ccccc1)c1ccc2ccc3cccc4ccc1c2c34 (centres unmarked) | 100 to 101 | – | – | – | – | – | – |
| O=P(O)(O)C(NCc1ccccc1)c1ccc2ccc3cccc4ccc1c2c34 (centres unmarked) | 235 to 236 | – | – | – | – | – | – |
| COP(=O)(OC)C(NCc1ccccc1)c1ccc2ccc3cccc4ccc1c2c34 (centres unmarked) [Compound 3Aa] | – | 4.05 | 4.53 | 4.54 | – | – | – |
| COP(=O)(OC)C(Nc1ccccc1)c1ccc2ccc3cccc4ccc1c2c34 (centres unmarked) [Compound 3Ab] | 203 to 204 | 3.48 | 3.98 | 4.15 | – | – | – |
| COP(=O)(OC)C(Nc1ccc(C)cc1)c1ccc2ccc3cccc4ccc1c2c34 (centres unmarked) [Compound 3Ac, dimethyl N-(4-methylphenyl)amino(pyren-1-yl)methylphosphonate] | – | 4.76 | 4.80 | 4.80 | – | – | – |
| COc1ccc(NC(c2ccc3ccc4cccc5ccc2c3c45)P(=O)(OC)OC)cc1 (centres unmarked) [Compound 3Ad, dimethyl N-(4-methoxyphenyl)amino(pyren-1-yl)methylphosphonate] | – | ~3.64 | ~4.70 | ~4.70 | 3.64 | 4.62 | 4.68 |
| COP(=O)(OC)C(Nc1cccc(C)c1)c1ccc2ccc3cccc4ccc1c2c34 (centres unmarked) [Compound 3Ai, dimethyl N-(m-methylphenyl)amino(pyren-1-yl)methylphosphonate] | 209 to 210 | 4.12 | 4.24 | 4.69 | – | – | – |
| Cc1ccc(NC(c2ccc3ccc4cccc5ccc2c3c45)P(=O)(O)O)cc1 (centres unmarked) [Compound 4c] | 210 to 211 | ~4.77 | ~4.82 | ~4.82 | – | – | – |
| COP(=O)(OC)C(O)c1ccc2ccc3cccc4ccc1c2c34 (centres unmarked) [Compound 5A, dimethyl hydroxy(pyren-1-yl)methylphosphonate] | – | 3.87 | 4.59 | 4.39 | – | – | – |
